Experimental data published in ChEMBL document CHEMBL1201862, “PubChem BioAssay data set” (2004).
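Dose response: 5 concentrations. Exposure: 48 h. Format: 96-well plates. Endpoint: linear interpolation; highest concentration if not reached. Abbreviation: GI50, concentration required for 50% inhibition of growth.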 Activity calls are given as the source filed them. No stated cut-off is given here; in the data, active = GI50 up to about 1.1 µM and inactive = higher.

Columns and labels:
Assay in all cases: DTP human tumour cell line panel, 48 h
A498 = system: A498
A549 = system: A549
CAKI-1 = system: CAKI-1
CCRF-CEM = system: CCRF-CEM
COLO 205 = system: COLO 205
DLD-1 = system: DLD-1
DMS-114 = system: DMS-114
DMS-273 = system: DMS-273
EKVX = system: EKVX
HCC 2998 = system: HCC 2998
HCT-116 = system: HCT-116
HCT-15 = system: HCT-15
HL-60 = system: HL-60
HOP-62 = system: HOP-62
HOP-92 = system: HOP-92
HT-29 = system: HT-29
IGROV-1 = system: IGROV-1
K562 = system: K562
KM-20L2 = system: KM-20L2
KM12 = system: KM12
LOX IMVI = system: LOX IMVI
M19-MEL = system: M19-MEL
MCF7 = system: MCF7
MOLT-4 = system: MOLT-4
Malme-3M = system: Malme-3M
NCI-H226 = system: NCI-H226
NCI-H23 = system: NCI-H23
NCI-H460 = system: NCI-H460
NCI-H522 = system: NCI-H522
NCI/ADR-RES = system: NCI/ADR-RES
OVCAR-3 = system: OVCAR-3
OVCAR-4 = system: OVCAR-4
OVCAR-5 = system: OVCAR-5
OVCAR-8 = system: OVCAR-8
RXF 393 = system: RXF 393
SF-268 = system: SF-268
SF-295 = system: SF-295
SF-539 = system: SF-539
SK-MEL-28 = system: SK-MEL-28
SK-MEL-2 = system: SK-MEL-2
SK-MEL-5 = system: SK-MEL-5
SK-OV-3 = system: SK-OV-3
SN12C = system: SN12C
SNB-19 = system: SNB-19
SNB-75 = system: SNB-75
SNB-78 = system: SNB-78
SW-620 = system: SW-620
U-251 = system: U-251
UACC-257 = system: UACC-257
UACC-62 = system: UACC-62
XF498 = system: XF498
786-0 = system: 786-0
ACHN = system: ACHN
LXFL 529 = system: LXFL 529
M14 = system: M14
RPMI-8226 = system: RPMI-8226
SR = system: SR
TK-10 = system: TK-10
UO-31 = system: UO-31
HOP-18 = system: HOP-18

## CCOCC(=O)N(C)c1cccc2c3c(n(C)c12)CCCCC3
A498
  GI50: > 100 µM (inactive)
A549
  GI50: > 100 µM (inactive)
CAKI-1
  GI50: 0.798 µM (active)
CCRF-CEM
  GI50: > 58.9 µM (inactive)
COLO 205
  GI50: > 100 µM (inactive)
DLD-1
  GI50: > 100 µM (inactive)
DMS-114
  GI50: > 100 µM (inactive)
DMS-273
  GI50: > 31.6 µM (inactive)
EKVX
  GI50: > 100 µM (inactive)
HCC 2998
  GI50: > 100 µM (inactive)
HCT-116
  GI50: > 100 µM (inactive)
HCT-15
  GI50: > 100 µM
HL-60
  GI50: > 100 µM (inactive)
HOP-62
  GI50: > 100 µM (inactive)
HOP-92
  GI50: > 94.8 µM (inactive)
HT-29
  GI50: > 100 µM (inactive)
IGROV-1
  GI50: > 100 µM (inactive)
K562
  GI50: > 62.4 µM (inactive)
KM-20L2
  GI50: > 100 µM (inactive)
KM12
  GI50: > 100 µM (inactive)
LOX IMVI
  GI50: > 100 µM (inactive)
M19-MEL
  GI50: > 100 µM (inactive)
MCF7
  GI50: > 100 µM (inactive)
MOLT-4
  GI50: > 61.5 µM (inactive)
Malme-3M
  GI50: > 100 µM (inactive)
NCI-H226
  GI50: > 100 µM (inactive)
NCI-H23
  GI50: > 100 µM (inactive)
NCI-H460
  GI50: > 100 µM (inactive)
NCI-H522
  GI50: > 100 µM (inactive)
NCI/ADR-RES
  GI50: > 100 µM (inactive)
OVCAR-3
  GI50: > 100 µM (inactive)
OVCAR-4
  GI50: > 100 µM (inactive)
OVCAR-5
  GI50: > 100 µM (inactive)
OVCAR-8
  GI50: > 100 µM (inactive)
RXF 393
  GI50: > 89.7 µM (inactive)
SF-268
  GI50: > 100 µM (inactive)
SF-295
  GI50: > 100 µM (inactive)
SF-539
  GI50: > 100 µM (inactive)
SK-MEL-28
  GI50: > 100 µM (inactive)
SK-MEL-2
  GI50: > 100 µM (inactive)
SK-MEL-5
  GI50: > 100 µM (inactive)
SK-OV-3
  GI50: > 100 µM (inactive)
SN12C
  GI50: > 100 µM (inactive)
SNB-19
  GI50: > 23.8 µM (inactive)
SNB-75
  GI50: > 46.1 µM (inactive)
SNB-78
  GI50: > 100 µM (inactive)
SW-620
  GI50: > 100 µM (inactive)
U-251
  GI50: > 100 µM (inactive)
UACC-257
  GI50: 1 µM (active)
UACC-62
  GI50: > 100 µM (inactive)
XF498
  GI50: > 93.8 µM (inactive)

## CN(CN1C(=O)C2Cc3ccccc3CN2C1=O)c1ccccn1 (stereo not given)
786-0
  GI50: > 100 µM (inactive)
A498
  GI50: > 100 µM (inactive)
A549
  GI50: > 100 µM (inactive)
ACHN
  GI50: > 100 µM (inactive)
CAKI-1
  GI50: > 100 µM (inactive)
CCRF-CEM
  GI50: > 100 µM (inactive)
COLO 205
  GI50: > 100 µM (inactive)
DLD-1
  GI50: > 100 µM (inactive)
DMS-114
  GI50: > 100 µM (inactive)
DMS-273
  GI50: > 100 µM (inactive)
HCC 2998
  GI50: > 100 µM (inactive)
HCT-15
  GI50: > 100 µM
HL-60
  GI50: > 100 µM (inactive)
HOP-62
  GI50: > 100 µM (inactive)
IGROV-1
  GI50: > 100 µM (inactive)
K562
  GI50: > 100 µM (inactive)
KM-20L2
  GI50: > 100 µM (inactive)
KM12
  GI50: > 100 µM (inactive)
LOX IMVI
  GI50: > 100 µM (inactive)
LXFL 529
  GI50: > 100 µM (inactive)
M14
  GI50: > 100 µM (inactive)
M19-MEL
  GI50: > 100 µM (inactive)
MOLT-4
  GI50: > 100 µM (inactive)
Malme-3M
  GI50: > 100 µM (inactive)
NCI-H226
  GI50: > 100 µM (inactive)
NCI-H23
  GI50: > 100 µM (inactive)
NCI-H460
  GI50: > 100 µM (inactive)
NCI-H522
  GI50: > 100 µM (inactive)
OVCAR-3
  GI50: > 100 µM (inactive)
OVCAR-4
  GI50: > 100 µM (inactive)
OVCAR-5
  GI50: > 100 µM (inactive)
OVCAR-8
  GI50: > 100 µM (inactive)
RPMI-8226
  GI50: > 100 µM (inactive)
SF-268
  GI50: > 100 µM (inactive)
SF-295
  GI50: > 100 µM (inactive)
SF-539
  GI50: > 100 µM (inactive)
SK-MEL-28
  GI50: > 100 µM (inactive)
SK-MEL-2
  GI50: > 100 µM (inactive)
SK-MEL-5
  GI50: > 100 µM (inactive)
SN12C
  GI50: > 100 µM (inactive)
SNB-19
  GI50: > 100 µM (inactive)
SR
  GI50: > 100 µM (inactive)
SW-620
  GI50: > 100 µM (inactive)
TK-10
  GI50: > 100 µM (inactive)
U-251
  GI50: > 100 µM (inactive)
UACC-62
  GI50: > 100 µM (inactive)
UO-31
  GI50: > 100 µM (inactive)
XF498
  GI50: > 100 µM (inactive)

## Cc1nc(Nc2nnc(-c3cc([N+](=O)[O-])cc([N+](=O)[O-])c3C)o2)sc1C(=O)CC(=O)Cc1nc2ccc(Cl)cc2nc1O
A498
  GI50: > 100 µM (inactive)
A549
  GI50: > 100 µM (inactive)
ACHN
  GI50: > 100 µM (inactive)
CAKI-1
  GI50: > 100 µM (inactive)
CCRF-CEM
  GI50: > 100 µM (inactive)
COLO 205
  GI50: > 100 µM (inactive)
DMS-114
  GI50: > 100 µM (inactive)
DMS-273
  GI50: 50.5 µM (inactive)
EKVX
  GI50: 37.3 µM (inactive)
HCC 2998
  GI50: > 100 µM (inactive)
HCT-116
  GI50: > 100 µM (inactive)
HCT-15
  GI50: > 100 µM
HL-60
  GI50: > 100 µM (inactive)
HOP-62
  GI50: > 100 µM (inactive)
HOP-92
  GI50: > 100 µM (inactive)
HT-29
  GI50: > 100 µM (inactive)
IGROV-1
  GI50: > 100 µM (inactive)
K562
  GI50: 41.8 µM (inactive)
KM-20L2
  GI50: > 100 µM (inactive)
KM12
  GI50: > 100 µM (inactive)
LOX IMVI
  GI50: > 100 µM (inactive)
LXFL 529
  GI50: > 100 µM (inactive)
M14
  GI50: > 100 µM (inactive)
M19-MEL
  GI50: > 100 µM (inactive)
MOLT-4
  GI50: > 100 µM (inactive)
NCI-H226
  GI50: > 100 µM (inactive)
NCI-H23
  GI50: > 100 µM (inactive)
NCI-H460
  GI50: > 100 µM (inactive)
NCI-H522
  GI50: 61.4 µM (inactive)
OVCAR-4
  GI50: > 100 µM (inactive)
OVCAR-5
  GI50: > 100 µM (inactive)
OVCAR-8
  GI50: > 100 µM (inactive)
RPMI-8226
  GI50: > 100 µM (inactive)
RXF 393
  GI50: > 100 µM (inactive)
SF-268
  GI50: > 100 µM (inactive)
SF-295
  GI50: > 100 µM (inactive)
SF-539
  GI50: > 100 µM (inactive)
SK-MEL-28
  GI50: > 100 µM (inactive)
SK-MEL-2
  GI50: > 100 µM (inactive)
SK-MEL-5
  GI50: > 100 µM (inactive)
SK-OV-3
  GI50: > 100 µM (inactive)
SN12C
  GI50: > 100 µM (inactive)
SNB-19
  GI50: > 100 µM (inactive)
SNB-75
  GI50: > 100 µM (inactive)
SNB-78
  GI50: 93.5 µM (inactive)
SR
  GI50: 77.6 µM (inactive)
SW-620
  GI50: > 100 µM (inactive)
TK-10
  GI50: > 100 µM (inactive)
U-251
  GI50: > 100 µM (inactive)
UACC-257
  GI50: > 100 µM (inactive)
UACC-62
  GI50: 33.6 µM (inactive)
UO-31
  GI50: > 100 µM (inactive)
XF498
  GI50: > 100 µM (inactive)

## Cn1c2c(c3ccccc31)CCN(CCCN1CCN(c3ccccc3)CC1)C2=O
786-0
  GI50: 19.5 µM (inactive)
A498
  GI50: 18.5 µM (inactive)
A549
  GI50: 23.6 µM (inactive)
ACHN
  GI50: 21.6 µM (inactive)
CAKI-1
  GI50: 16.7 µM (inactive)
CCRF-CEM
  GI50: 28.2 µM (inactive)
COLO 205
  GI50: 17.6 µM (inactive)
DLD-1
  GI50: 19.7 µM (inactive)
DMS-114
  GI50: 16.9 µM (inactive)
DMS-273
  GI50: 21.5 µM (inactive)
EKVX
  GI50: 26.7 µM (inactive)
HCT-116
  GI50: 16.1 µM (inactive)
HCT-15
  GI50: 19.1 µM
HL-60
  GI50: 13.5 µM (inactive)
HOP-18
  GI50: 15.5 µM (inactive)
HOP-92
  GI50: 15.7 µM (inactive)
HT-29
  GI50: 13.8 µM (inactive)
IGROV-1
  GI50: 20.8 µM (inactive)
K562
  GI50: 17.3 µM (inactive)
KM-20L2
  GI50: 12.8 µM (inactive)
LOX IMVI
  GI50: 22.9 µM (inactive)
LXFL 529
  GI50: 17.9 µM (inactive)
M14
  GI50: 16.4 µM (inactive)
M19-MEL
  GI50: 19.5 µM (inactive)
MOLT-4
  GI50: 13.3 µM (inactive)
NCI-H23
  GI50: 20.5 µM (inactive)
NCI-H522
  GI50: 14.3 µM (inactive)
OVCAR-8
  GI50: 21.6 µM (inactive)
RPMI-8226
  GI50: 16 µM (inactive)
RXF 393
  GI50: 15.8 µM (inactive)
SF-268
  GI50: 25.7 µM (inactive)
SF-295
  GI50: 23.1 µM (inactive)
SF-539
  GI50: 17.6 µM (inactive)
SK-MEL-28
  GI50: 18.1 µM (inactive)
SK-MEL-5
  GI50: 18.9 µM (inactive)
SK-OV-3
  GI50: 19.9 µM (inactive)
SN12C
  GI50: 20.6 µM (inactive)
SW-620
  GI50: 22.1 µM (inactive)
TK-10
  GI50: 16.9 µM (inactive)
U-251
  GI50: 16.6 µM (inactive)
UACC-62
  GI50: 19.3 µM (inactive)
UO-31
  GI50: 14.7 µM (inactive)
XF498
  GI50: 12.6 µM (inactive)
